Reference: ChEMBL document CHEMBL3297736, “Rational improvement of the affinity and selectivity of integrin binding of grafted lasso peptides” (J Med Chem, 2014)
Peptide text beside a SMILES is read from it.

Legend:
Integrin alpha-5/beta-1 = Integrin alpha-5/beta-1 (Homo sapiens, UniProt P05556+P08648); assay: Inhibition of fibronectin binding to human alpha5beta1 integrin after 1 hr by ELISA; assay type: protein-complex assay
Homo sapiens = organism: Homo sapiens; assay: Selectivity ratio IC50 for human alpha2b/beta3 integrin to IC50 for human alphaVbeta3 integrin
Integrin alpha-V/beta-3 [1] = target: T1, Integrin alpha-V/beta-3 (Homo sapiens, UniProt P05106+P06756); assay: Inhibition of vitronectin binding to human alphaVbeta3 integrin after 2 hrs by ELISA; assay type: protein-complex assay
Target sequence in this assay (P05106 27-788 limits assumed): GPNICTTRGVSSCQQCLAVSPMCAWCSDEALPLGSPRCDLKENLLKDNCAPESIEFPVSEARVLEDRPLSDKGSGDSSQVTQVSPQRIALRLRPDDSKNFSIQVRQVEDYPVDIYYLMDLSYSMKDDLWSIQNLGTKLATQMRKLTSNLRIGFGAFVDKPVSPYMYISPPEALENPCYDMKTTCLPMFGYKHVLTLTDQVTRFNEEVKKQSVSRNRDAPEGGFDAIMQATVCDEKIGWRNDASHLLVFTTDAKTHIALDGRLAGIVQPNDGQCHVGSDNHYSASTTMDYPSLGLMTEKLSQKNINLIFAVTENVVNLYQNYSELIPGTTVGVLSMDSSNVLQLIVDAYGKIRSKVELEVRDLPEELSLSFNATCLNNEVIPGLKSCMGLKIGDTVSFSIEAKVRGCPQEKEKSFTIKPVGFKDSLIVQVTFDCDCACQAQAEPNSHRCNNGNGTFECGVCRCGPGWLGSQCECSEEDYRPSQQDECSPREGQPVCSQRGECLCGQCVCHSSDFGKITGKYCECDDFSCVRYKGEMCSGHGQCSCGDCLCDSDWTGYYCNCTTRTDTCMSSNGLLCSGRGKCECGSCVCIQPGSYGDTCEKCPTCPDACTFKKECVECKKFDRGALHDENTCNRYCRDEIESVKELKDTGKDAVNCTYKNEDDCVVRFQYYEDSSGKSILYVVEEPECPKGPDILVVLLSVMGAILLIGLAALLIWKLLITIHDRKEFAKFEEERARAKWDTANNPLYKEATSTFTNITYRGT
Target sequence in this assay (P06756 31-889 limits assumed): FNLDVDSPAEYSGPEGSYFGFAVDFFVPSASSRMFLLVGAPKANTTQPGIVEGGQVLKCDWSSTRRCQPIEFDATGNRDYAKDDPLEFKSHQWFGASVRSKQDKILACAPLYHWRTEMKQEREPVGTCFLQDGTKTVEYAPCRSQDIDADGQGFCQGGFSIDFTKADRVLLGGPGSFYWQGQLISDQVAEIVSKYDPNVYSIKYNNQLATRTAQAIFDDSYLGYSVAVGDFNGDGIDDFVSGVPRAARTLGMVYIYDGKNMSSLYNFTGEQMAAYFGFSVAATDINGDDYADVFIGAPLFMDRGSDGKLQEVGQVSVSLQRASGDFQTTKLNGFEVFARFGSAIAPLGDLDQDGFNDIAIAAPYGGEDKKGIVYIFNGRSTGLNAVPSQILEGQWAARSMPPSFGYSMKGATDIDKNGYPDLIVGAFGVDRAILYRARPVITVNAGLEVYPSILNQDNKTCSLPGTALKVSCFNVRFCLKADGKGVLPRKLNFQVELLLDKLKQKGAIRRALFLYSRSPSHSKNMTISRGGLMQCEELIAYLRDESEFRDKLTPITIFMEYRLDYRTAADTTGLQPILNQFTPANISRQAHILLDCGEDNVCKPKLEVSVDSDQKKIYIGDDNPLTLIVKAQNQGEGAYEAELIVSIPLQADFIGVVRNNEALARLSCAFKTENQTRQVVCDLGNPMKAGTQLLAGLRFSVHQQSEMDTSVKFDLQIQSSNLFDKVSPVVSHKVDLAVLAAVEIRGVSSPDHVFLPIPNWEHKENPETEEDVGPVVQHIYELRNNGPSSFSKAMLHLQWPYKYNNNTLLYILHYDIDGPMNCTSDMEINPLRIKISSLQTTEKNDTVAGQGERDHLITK
Target sequence in this assay (P06756 891-1048 limits assumed): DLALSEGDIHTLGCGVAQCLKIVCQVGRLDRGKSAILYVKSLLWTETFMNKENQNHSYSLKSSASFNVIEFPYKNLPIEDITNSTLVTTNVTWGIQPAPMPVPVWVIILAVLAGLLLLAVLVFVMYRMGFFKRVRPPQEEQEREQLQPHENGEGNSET

Integrin alpha-V/beta-3 [2] = target: T1, Integrin alpha-V/beta-3; assay: Inhibition of alphavbeta3 integrin-mediated cell adhesion in HUVEC after 15 mins by matrigel assay; assay type: protein-complex assay
[3] = target: Integrin alpha-IIb/beta-3 (Homo sapiens, UniProt P05106+P08514); assay: Inhibition of fibrinogen binding to human alpha2b/beta3 integrin after 1 hr by ELISA; assay type: protein-complex assay
Chain of Integrin alpha-IIb/beta-3 (P05106 27-788 limits assumed): as the sequence (P05106 27-788 limits assumed) above
Chain of Integrin alpha-IIb/beta-3 (P08514 32-887 limits assumed): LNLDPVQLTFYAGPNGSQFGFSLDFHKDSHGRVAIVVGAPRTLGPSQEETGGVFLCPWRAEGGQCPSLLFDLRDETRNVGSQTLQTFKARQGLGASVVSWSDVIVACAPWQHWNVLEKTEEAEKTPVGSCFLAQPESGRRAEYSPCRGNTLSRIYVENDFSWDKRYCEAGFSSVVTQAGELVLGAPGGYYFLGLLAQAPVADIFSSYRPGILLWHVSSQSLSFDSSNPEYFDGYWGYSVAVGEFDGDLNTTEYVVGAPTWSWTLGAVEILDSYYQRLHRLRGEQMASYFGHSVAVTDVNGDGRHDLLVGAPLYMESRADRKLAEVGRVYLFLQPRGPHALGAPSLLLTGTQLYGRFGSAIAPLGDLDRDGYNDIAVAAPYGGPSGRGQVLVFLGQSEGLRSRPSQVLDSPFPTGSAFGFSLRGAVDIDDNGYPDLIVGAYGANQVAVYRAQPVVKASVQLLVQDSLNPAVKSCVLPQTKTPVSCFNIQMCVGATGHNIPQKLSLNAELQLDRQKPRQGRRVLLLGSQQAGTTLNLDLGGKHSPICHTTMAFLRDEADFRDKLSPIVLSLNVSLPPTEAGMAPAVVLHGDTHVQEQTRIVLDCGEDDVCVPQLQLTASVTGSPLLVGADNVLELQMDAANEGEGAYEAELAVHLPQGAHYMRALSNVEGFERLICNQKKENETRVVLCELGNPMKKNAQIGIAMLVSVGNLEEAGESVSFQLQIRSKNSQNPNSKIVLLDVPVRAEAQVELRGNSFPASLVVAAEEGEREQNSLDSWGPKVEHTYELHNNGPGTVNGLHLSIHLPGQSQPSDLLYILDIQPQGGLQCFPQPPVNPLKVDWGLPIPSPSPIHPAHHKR
Chain of Integrin alpha-IIb/beta-3 (P08514 891-1039 limits assumed): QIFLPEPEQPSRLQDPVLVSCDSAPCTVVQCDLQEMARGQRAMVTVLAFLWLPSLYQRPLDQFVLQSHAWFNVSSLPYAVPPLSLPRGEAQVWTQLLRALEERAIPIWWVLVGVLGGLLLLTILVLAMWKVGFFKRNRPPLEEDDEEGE

Integrin alpha-V/beta-3 [4] = target: T1, Integrin alpha-V/beta-3; assay: Inhibition of alphavbeta3 integrin-mediated capillary tube formation in HUVEC after 16 hrs by matrigel assay; assay type: protein-complex assay
Integrin alpha-V/beta-5 = Integrin alpha-V/beta-5 (Homo sapiens, UniProt P06756+P18084); assay: Inhibition of vitronectin binding to human alphaVbeta5 integrin after 1 hr by ELISA; assay type: protein-complex assay
Chain of Integrin alpha-V/beta-5 (P06756 31-889 limits assumed): as the sequence (P06756 31-889 limits assumed) above
Chain of Integrin alpha-V/beta-5 (P06756 891-1048 limits assumed): as the sequence (P06756 891-1048 limits assumed) above
Chain of Integrin alpha-V/beta-5 (P18084 24-799 limits assumed): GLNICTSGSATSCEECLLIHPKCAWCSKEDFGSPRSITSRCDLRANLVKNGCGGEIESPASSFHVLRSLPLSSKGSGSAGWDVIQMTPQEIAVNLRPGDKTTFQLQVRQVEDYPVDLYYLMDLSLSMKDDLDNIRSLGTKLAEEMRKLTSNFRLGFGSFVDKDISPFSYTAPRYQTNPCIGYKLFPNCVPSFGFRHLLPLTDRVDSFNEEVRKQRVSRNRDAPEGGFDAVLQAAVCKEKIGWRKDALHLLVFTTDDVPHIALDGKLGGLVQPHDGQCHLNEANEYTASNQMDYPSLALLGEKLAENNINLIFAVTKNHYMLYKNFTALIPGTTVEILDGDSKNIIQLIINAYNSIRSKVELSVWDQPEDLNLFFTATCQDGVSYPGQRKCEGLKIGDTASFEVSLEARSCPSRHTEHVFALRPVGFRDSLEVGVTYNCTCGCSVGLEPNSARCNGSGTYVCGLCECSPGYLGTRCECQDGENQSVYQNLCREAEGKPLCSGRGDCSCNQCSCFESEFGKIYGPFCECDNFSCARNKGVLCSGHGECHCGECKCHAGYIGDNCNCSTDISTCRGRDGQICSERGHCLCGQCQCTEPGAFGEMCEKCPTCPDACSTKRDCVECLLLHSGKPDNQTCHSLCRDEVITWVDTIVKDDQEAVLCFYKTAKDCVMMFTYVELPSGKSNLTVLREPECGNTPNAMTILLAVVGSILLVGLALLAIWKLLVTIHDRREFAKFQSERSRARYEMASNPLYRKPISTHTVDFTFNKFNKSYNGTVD

Compound	IC50 (Integrin alpha-5/beta-1) [µM]	Ratio IC50 (Homo sapiens)	IC50 (Integrin alpha-V/beta-3 [1]) [µM]	inhibition (Integrin alpha-V/beta-3 [2])	IC50 [3] [µM]	inhibition (Integrin alpha-V/beta-3 [4])	IC50 (Integrin alpha-V/beta-5) [µM]
N=C(N)NCCC[C@H](N)C(=O)NCC(=O)N[C@@H](CC(=O)O)C(=O)N[C@@H](Cc1ccccc1)C(=O)O (H-RGDF-OH)	1550	177	4.1	Dose-dependent effect	725	Dose-dependent effect	92
N=C(N)NCCC[C@H](N)C(=O)NCC(=O)N[C@@H](CC(=O)O)C(=O)O			12		130		38
NC(N)=NCCC[C@H](N)C(=O)NCC(=O)N[C@@H](CC(=O)O)C(=O)O				Dose-dependent effect		Dose-dependent effect	
